Experimental data published in publication PMC7801115, “Preclinical in vitro screening of newly synthesised amidino substituted benzimidazoles and benzothiazoles” (Journal of Enzyme Inhibition and Medicinal Chemistry, 2021).
Structures can show the parent of a compound that is named as a salt.

Assays:
HCC827 [1] = test: MTS cell viability (cytotoxicity) assay, 2D cell culture; format: cell-based; settings: Homo sapiens, read-out: IC50 antitumor activity HCC827 2D
Description: (§1) Compounds are diluted 1:3. 500 nL (for 2 D cell culture) or 400 nL (for 3 D cell culture) of compound were transferred from mother plate to test plate by using Mosquito (TTP labtech). DMSO percentage in test concentrations was 0.5 − 1.0%. Starting concentration of the test compounds and standard compound doxorubicin was 50 µM (2 D cell culture) or 100 µM (3 D cell culture).
(§2) Cells were grown in 96 well cell star polystyrene plates. 10,000 cells/well were seeded in wells 4 h prior the treatment with different compounds concentrations and incubated for 72 h. A cell viability assay was performed according to the manufacturer’s instruction, using CellTiter 96 aqueous solution, MTS kit (Promega, Madison, WI, USA). After 0.5–2 h of cell incubation with MTS in 2 D cell culture, the plates were read using PE EnVision absorbance at 490 nm. […] Since we prefer homogeneous assays (mix and read procedures) and therefore MTS is more practical (one step less than MTT). MTS is more sensitive and accurate in comparison with MTT assay.
(§3) Calculation of IC50 data, curves and QC analysis is made by using Excel tools and GraphPadPrism software (La Jolla, CA), v. […] QC criteria parameters (Z', S:B, R2, HillSlope) were checked for every IC50 curve.

HCC827 [2] = test: BrdU proliferation assay, 2D cell culture; format: cell-based; settings: Homo sapiens, HCC827, 2D cell culture, ±SD, N = 2
Description: as §2
(§4) Proliferation assay was performed using Cell Proliferation ELISA, BrdU (Sigma, St. Louis, MO, USA). Briefly, 48 h hours after compound addition, 10 µM of BrdU was added to each well and incubated for following 24 h. After incubation, single cell suspension was made for 3 D cell culture in the new 96 well plate. Plates were centrifuged and supernatants were removed from each plate (for 2 D and 3 D cell culture) followed by 60 min incubation at 60° C. The rest of the proliferation assay was performed according to the manufacturer instructions.
as §3

HCC827 [3] = test: BrdU proliferation assay, 3D cell culture; format: cell-based; settings: Homo sapiens, HCC827, 3D cell culture, ±SD, N = 2
Description: (§5) Cells were grown in 96 well Perfecta 3 D hanging drop plates 5000 cell/well for 4 days until spheres were formed (and checked under the microscope). After sphere formation cells were treated with compounds followed by 72 h incubation. Cell viability assay was performed according to the manufacturer’s instruction, using CellTiter GLO 3 D for 3 D cell culture (Promega); cell incubation was 5 min on the shaker followed by 25 min incubation in the dark. Plates were read using PE EnVision luminescence.
as §4, §3

A549 [4] = test: MTS cell viability (cytotoxicity) assay, 2D cell culture; format: cell-based; settings: Homo sapiens, A549, 2D cell culture, 72 h, ±SD, N = 2, read-out: IC50 antitumor activity A549 2D
Description: as §1, §2, §3

NCI-H358 [5] = test: as above; format: cell-based; settings: Homo sapiens, read-out: IC50 antitumor activity NCI-H358 2D
Description: as §1, §2, §3

A549 [6] = test: Cell viability assay, 3D hanging drop cell culture (CellTiter GLO 3D); format: cell-based; settings: Homo sapiens; A549, 3D hanging drop cell culture, 72 h; ±SD, N = 2; read-out: IC50 antitumor activity A549 3D
Description: as §1, §5, §3

HCC827 [7] = test: as above; format: cell-based; settings: Homo sapiens, read-out: IC50 antitumor activity HCC827 3D
Description: as §1, §5, §3

NCI-H358 [8] = test: as above; format: cell-based; settings: Homo sapiens, read-out: IC50 antitumor activity NCI-H358 3D
Description: as §1, §5, §3

A549 [9] = test: BrdU proliferation assay, 2D cell culture; format: cell-based; settings: Homo sapiens, A549, 2D cell culture, ±SD, N = 2
Description: Cells were grown in 96 well cell star polystyrene plates. 10,000 cells/well were seeded in wells 4 h prior the treatment with different compounds concentrations and incubated for 72 h. A cell viability assay was performed according to the manufacturer’s instruction, using CellTiter 96 aqueous solution, MTS kit (Promega, Madison, WI, USA). After 0.5–2 h of cell incubation with MTS in 2 D cell culture, the plates were read using PE EnVision absorbance at 490 nm. The results for each of tested compounds are reported as growth percentages from two independent concentrations curves compared with the untreated control cells after drug exposure. Since we prefer homogeneous assays (mix and read procedures) and therefore MTS is more practical (one step less than MTT). MTS is more sensitive and accurate in comparison with MTT assay.
as §4
(§6) Calculation of IC50 data, curves and QC analysis is made by using Excel tools and GraphPadPrism software (La Jolla, CA), v. 5.03. In brief, individual concentration–effect curves are generated by plotting the logarithm of the tested concentration of tested compounds (X) versus corresponding percent inhibition values (Y) using least squares (ordinary) fit. […] QC criteria parameters (Z', S:B, R2, HillSlope) were checked for every IC50 curve.

A549 [10] = test: BrdU proliferation assay, 3D cell culture; format: cell-based; settings: Homo sapiens, A549, 3D cell culture, ±SD, N = 2
Description: as §5, with “luminescence. The results for each of tested compounds are reported as growth percentages from two independent concentrations curves compared with the untreated control cells after drug exposure.” for “luminescence.”
as §4, §6

NCI-H358 [11] = test: BrdU proliferation assay, 3D cell culture; format: cell-based; settings: Homo sapiens, NCI-H358, 3D cell culture, ±SD, N = 2
Description: as §5, with “luminescence. The results for each of tested compounds are reported as growth percentages from two independent concentrations curves compared with the untreated control cells after drug exposure.” for “luminescence.”
as §4, §6

NCI-H358 [12] = test: BrdU proliferation assay, 2D cell culture; format: cell-based; settings: Homo sapiens, NCI-H358, 2D cell culture, ±SD, N = 2
Description: as §2, §4, §3

[13] = HCC827, 2D cell culture, 72 h, MTS, ±SD, N = 2
[14] = NCI-H358, 2D cell culture, 72 h, MTS, ±SD, N = 2
[15] = HCC827, 3D hanging drop cell culture, 72 h, ±SD, N = 2
[16] = NCI-H358, 3D hanging drop cell culture, 72 h, ±SD, N = 2

SMILES	IC50 (HCC827 [1]; [13])	IC50 (HCC827 [2])	IC50 (HCC827 [3])	IC50 (A549 [4])	IC50 (NCI-H358 [5]; [14])	IC50 (A549 [6])	IC50 (HCC827 [7]; [15])	IC50 (NCI-H358 [8]; [16])	IC50 (A549 [9])	IC50 (A549 [10])	IC50 (NCI-H358 [11])	IC50 (NCI-H358 [12])	melting point	IC50 (HCC827 [1]; HCC827, 72 h)	IC50 (NCI-H358 [5]; NCI-H358, 72 h)	IC50 (HCC827 [7]; HCC827, 72 h)	IC50 (NCI-H358 [8]; NCI-H358, 72 h)
CN[C@@H]1C[C@H]2O[C@@](C)([C@@H]1OC)n1c3ccccc3c3c4c(c5c6ccccc6n2c5c31)C(=O)NC4 [Staurosporine, reference compound]	150 ± 10 nM	60 ± 10 nM	40 ± 10 nM	–	–	–	–	–	–	–	–	–	–	–	–	–	–
COc1cccc2c1C(=O)c1c(O)c3c(c(O)c1C2=O)C[C@@](O)(C(=O)CO)C[C@@H]3O[C@H]1C[C@H](N)[C@H](O)[C@H](C)O1 [Doxorubicin, reference compound]	390 ± 50 nM	20 nM	1030 ± 710 nM	2000 ± 230 nM	110 ± 10 nM	5000 ± 260 nM	780 ± 80 nM	250 ± 30 nM	60 ± 10 nM	390 ± 20 nM	340 ± 360 nM	40 nM	–	–	–	–	–
COc1cc2c(Nc3ccc(Br)cc3F)ncnc2cc1OCC1CCN(C)CC1 [Vandetanib, reference compound]	810 ± 50 nM	2820 ± 1980 nM	870 ± 1150 nM	> 25000 nM	3000 ± 850 nM	> 50000 nM	2000 ± 110 nM	300 ± 20 nM	> 25000 nM	1250 ± 2820 nM	1910 ± 90 nM	1000 ± 280 nM	–	–	–	–	–
Cl.c1ccc2c(-c3nc4ccc(C5=NCCCN5)cc4s3)c[nH]c2c1 [Compound 5f, 2-(1H-Indol-3-yl)-6–(3,4,5,6-tetrahydropyrimidin-1-ium-2-yl)benzothiazole chloride]	> 50000 nM	> 50000 nM	> 100000 nM	> 50000 nM	> 50000 nM	> 100000 nM	> 100000 nM	> 100000 nM	> 50000 nM	> 100000 nM	> 100000 nM	> 50000 nM	> 300 °C	–	–	–	–
Cl.c1ccc(-c2nc3ccc(C4=NCCCN4)cc3s2)cc1 [Compound 5a, 2-Phenyl-6–(3,4,5,6-tetrahydropyrimidin-1-ium-2-yl)benzothiazole chloride]	> 50000 nM	> 50000 nM	> 100000 nM	> 50000 nM	> 50000 nM	> 100000 nM	> 100000 nM	> 100000 nM	> 50000 nM	> 100000 nM	> 100000 nM	> 50000 nM	272 to 275 °C	–	–	–	–
c1ccc2c(-c3nc4ccc(C5=NCCCN5)cc4[nH]3)c[nH]c2c1 (as salt: chloride) [Compound 6e, 2-(1H-Indol-3-yl)-5(6)–(3,4,5,6-tetrahydropyrimidin-1-ium-2-yl)benzimidazole chloride]	–	–	–	–	–	–	–	–	–	–	–	–	> 300 °C	–	–	–	–
Cl.c1ccc2c(c1)cc(-c1nc3ccc(C4=NCCCN4)cc3s1)c1ccccc12 [Compound 5i, 2-(Phenanthrene-9-yl)-6–(3,4,5,6-tetrahydropyrimidin-1-ium-2-yl)benzothiazole chloride]	–	> 50000 nM	> 100000 nM	> 50000 nM	–	> 100000 nM	–	–	> 50000 nM	> 100000 nM	> 100000 nM	> 50000 nM	196 to 200 °C	> 50000 nM	> 50000 nM	> 100000 nM	> 100000 nM
